From US11453703B2, “Heterotandem bicyclic peptide complexes” (BicycleTX Limited, priority 2018, dated 2022)
Starred links: 1 amine or outer side, 2 acyl side, 3 side chain; linkers in the order of their positions; H or OH if unused. Positions of bridges follow the written chain, without caps; N, C: chain ends. Non-standard residues stand in square brackets, D forms with d. Chains are numbered I, II in the order given. X1 = O=C(CCc1cn(CCOCCOCCOCCOCCOCCOCCOCCOCCOCCOCCOCCOCCC(=O)[*:2])nn1)NCCC(=O)[*:1]; TATA = O=C(CC[*:1])N1CN(C(=O)CC[*:2])CN(C(=O)CC[*:3])C1; 1Nal = N[C@@H](Cc1cccc2ccccc12)C(=O)O; Hyp = O=C(O)[C@@H]1C[C@@H](O)CN1; hArg = N=C(N)NCCCC[C@H](N)C(=O)O; tBuAla = CC(C)(C)C[C@H](N)C(=O)O; Nle = CCCC[C@H](N)C(=O)O; Sar = CNCC(=O)O

Tests used:
CD137 [1] = biological target: T1, CD137 (Homo sapiens, UniProt Q07011); assay: CD137 reporter assay, co-culture with EphA2 tumour cells; type: cell-based; design: host or cells: Jurkat reporter cells
T1 sequence (Q07011 24-255): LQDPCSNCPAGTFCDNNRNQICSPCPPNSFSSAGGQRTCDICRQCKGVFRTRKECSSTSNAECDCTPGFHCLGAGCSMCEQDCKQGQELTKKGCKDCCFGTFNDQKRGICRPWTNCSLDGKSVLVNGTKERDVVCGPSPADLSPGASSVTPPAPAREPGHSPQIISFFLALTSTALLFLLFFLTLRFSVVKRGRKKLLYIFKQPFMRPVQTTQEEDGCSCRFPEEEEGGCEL
Method: Culture medium referred to as R1 media is prepared by adding 1% FBS to RPMI-1640 (component of Promega kit CS196005). Serial dilutions of test articles in R1 are prepared in a sterile 96 well-plate. Use 25 μl per well of test articles or R1 (as a background control) to designated wells in white cell culture plate. Tumour cells* are harvested and resuspended at a concentration of 400,000 cells/mL in R1 media. Twenty five (25) μL/well tumour cells are used in white cell culture plate. Jurkat cells (Promega kit CS196005, 0.5 mL) are thawed in the water bath and then added to 5 ml pre-warmed R1 medium. Twenty five (25) μL/well Jurkat cells are used in white cell culture plate. Incubate the cells and test articles for 6h at 37° C., 5% CO2. At the end of 6 h, add 75 μl/well Bio-Glo™ (Promega) and incubate for 10 min before reading luminescence in a plate reader (Clariostar, BMG). The fold change relative to cells (Jurkat cells+Cell line used in co-culture) is calculated and plotted in GraphPad Prism as log(agonist) vs response to determine EC50 (nM) and Fold Induction over background (Max)

CD137 [2] = biological target: T1, CD137; assay: CD137 reporter assay, co-culture with Nectin-4 tumour cells; type: cell-based; design: host or cells: Jurkat reporter cells; settings: for Fold Induction over Background: tumour target Nectin4, co-culture with H1376, 6 h;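 as to all read-outs here: jurkat reporter cells co-cultured with tumour cells and test article for 6 h, luminescence signal relative to Jurkat plus tumour cells lacking test article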
[3] = tumour target EphA2, co-culture with SC-OV-3, 6 h

## CCCC[C@@H]1NC(=O)[C@H](Cc2ccc(O)cc2)NC(=O)[C@@H]2CCCN2C(=O)[C@H](CC(=O)O)NC(=O)[C@H](C)NC(=O)[C@H](Cc2ccccc2)NC(=O)[C@@H]2CSCCC(=O)N3CN(CN(C3)C(=O)CCSC[C@@H](C(=O)N[C@@H](CNC(=O)CCOCCOCCOCCOCCOCCOCCOCCOCCOCCOCCOCCOCCn3cc(CCC(=O)NCCC(=O)N(C)CC(=O)N(C)CC(=O)N(C)CC(=O)N(C)CC(=O)N(C)CC(=O)N(C)CC(=O)N(C)CC(=O)N(C)CC(=O)N(C)CC(=O)N(C)CC(=O)N[C@@H](C)C(=O)N[C@@H](CCCCNC(=N)N)C(=O)N[C@@H](CC(=O)O)C(=O)N[C@H]4CSCCC(=O)N5CN6CN(C5)C(=O)CCSC[C@H](NC(=O)[C@H](CC(C)C)NC(=O)[C@@H]5CCCN5C(=O)[C@H](CC(N)=O)NC(=O)[C@H](C(C)C)NC(=O)[C@H](CC(C)C)NC(=O)[C@@H]5C[C@@H](O)CN5C4=O)C(=O)N[C@@H](CC(C)C)C(=O)N[C@@H](Cc4c[nH]cn4)C(=O)N4CCC[C@H]4C(=O)N[C@H](CC(=O)O)C(=O)N[C@@H](Cc4c[nH]c5ccccc45)C(=O)N[C@@H](CCCCNC(=N)N)C(=O)N[C@H](C(N)=O)CSCCC6=O)nn3)C(N)=O)NC1=O)C(=O)CCSC[C@H](NC(=O)[C@H](C)NC(C)=O)C(=O)N[C@@H]([C@@H](C)CC)C(=O)N[C@@H](CCC(=O)O)C(=O)N[C@@H](CCC(=O)O)C(=O)NCC(=O)N[C@@H](CCC(N)=O)C(=O)N[C@@H](Cc1ccc(O)cc1)C(=O)N2 [BCY7985]
CD137 [1]; Promega CD137 luciferase reporter assay, in the presence of EphA2-expressing HT1080 cells (FIG. 3)
  induction of CD137 cell activity: strong induction of CD137 cell activity
CD137 [1]; in the absence of HT1080 cells (FIG. 3)
  CD137 induction: no CD137 induction
CD137 [1]; [3]
  Fold Induction over Background: 15 fold

## CCCC[C@@H]1NC(=O)[C@H](Cc2ccc(O)cc2)NC(=O)[C@@H]2CCCN2C(=O)[C@H](CC(=O)O)NC(=O)[C@H](C)NC(=O)[C@H](Cc2ccccc2)NC(=O)[C@@H]2CSCCC(=O)N3CN(CN(C3)C(=O)CCSC[C@@H](C(=O)N[C@@H](CNC(=O)CCOCCOCCOCCOCCOCCOCCOCCOCCOCCOCCOCCOCCn3cc(CCC(=O)NCCC(=O)N(C)CC(=O)N(C)CC(=O)N(C)CC(=O)N(C)CC(=O)N(C)CC(=O)N(C)CC(=O)N(C)CC(=O)N(C)CC(=O)N(C)CC(=O)N(C)CC(=O)N[C@H](C(=O)NCC(=O)N4CCC[C@H]4C(=O)N[C@H]4CSCCC(=O)N5CN6CN(C5)C(=O)CCSC[C@H](NC(=O)[C@@H]5CCCN5C(=O)[C@H]([C@@H](C)O)NC(=O)[C@@H]5CCCN5C(=O)[C@H](CC(=O)O)NC(=O)[C@H](Cc5c[nH]c7ccccc57)NC(=O)[C@H](CC(C)C)NC4=O)C(=O)N[C@@H](C)C(=O)N[C@@H](CC(N)=O)C(=O)N[C@@H](CC(C)C)C(=O)N[C@@H](Cc4c[nH]cn4)C(=O)N[C@@H](CC(C)C)C(=O)N[C@@H](CCCCNC(=N)N)C(=O)N[C@H](C(N)=O)CSCCC6=O)C(C)C)nn3)C(N)=O)NC1=O)C(=O)CCSC[C@H](NC(=O)[C@H](C)NC(C)=O)C(=O)N[C@@H]([C@@H](C)CC)C(=O)N[C@@H](CCC(=O)O)C(=O)N[C@@H](CCC(=O)O)C(=O)NCC(=O)N[C@@H](CCC(N)=O)C(=O)N[C@@H](Cc1ccc(O)cc1)C(=O)N2 [BCY8943]
CD137 [1]; tumour target EphA2, co-culture with PC3, at 100 nM, read-out: Fold Induction over Background at 100 nM
  fold induction at 0.1 µM: < 2

## CCCC[C@@H]1NC(=O)[C@H](Cc2ccc(O)cc2)NC(=O)[C@@H]2CCCN2C(=O)[C@H](CC(=O)O)NC(=O)[C@H](C)NC(=O)[C@H](Cc2ccccc2)NC(=O)[C@@H]2CSCCC(=O)N3CN(CN(C3)C(=O)CCSC[C@@H](C(=O)N[C@@H](CNC(=O)CCOCCOCCOCCOCCOCCOCCOCCOCCOCCOCCOCCOCCn3cc(CCC(=O)NCCC(=O)N(C)CC(=O)N(C)CC(=O)N(C)CC(=O)N(C)CC(=O)N(C)CC(=O)N(C)CC(=O)N(C)CC(=O)N(C)CC(=O)N(C)CC(=O)N(C)CC(=O)N[C@@H](C)C(=O)N[C@@H](CCCCNC(=N)N)C(=O)N[C@@H](CC(=O)O)C(=O)N[C@H]4CSCCC(=O)N5CN6CN(C5)C(=O)CCSC[C@H](NC(=O)[C@H](CC(C)C)NC(=O)[C@@H]5CCCN5C(=O)[C@H](CC(N)=O)NC(=O)[C@H](C(C)C)NC(=O)[C@H](CC(C)C)NC(=O)[C@@H]5C[C@@H](O)CN5C4=O)C(=O)N[C@@H](CC(C)C)C(=O)N[C@@H](Cc4c[nH]cn4)C(=O)N4CCC[C@H]4C(=O)N[C@H](CC(=O)O)C(=O)N[C@@H](Cc4c[nH]c5ccccc45)C(=O)N[C@@H](CCCCNC(=N)N)C(=O)N[C@H](C(N)=O)CSCCC6=O)nn3)C(N)=O)NC1=O)C(=O)CCSC[C@H](NC(C)=O)C(=O)N[C@@H](CC(C)(C)C)C(=O)N1CCC[C@H]1C(=O)N[C@@H](CCC(=O)O)C(=O)N[C@H](C)C(=O)N1CCC[C@H]1C(=O)N[C@@H](Cc1ccc(O)cc1)C(=O)N2 [BCY9173]
CD137 [1]; [3]
  Fold Induction over Background: 21 fold

## CCCC[C@@H]1NC(=O)[C@H](Cc2ccc(O)cc2)NC(=O)[C@@H]2CCCN2C(=O)[C@H](CC(=O)O)NC(=O)[C@H](C)NC(=O)[C@H](Cc2ccccc2)NC(=O)[C@@H]2CSCCC(=O)N3CN(CN(C3)C(=O)CCSC[C@@H](C(=O)N[C@@H](CNC(=O)CCOCCOCCOCCOCCOCCOCCOCCOCCOCCOCCOCCOCCOCCOCCOCCOCCOCCOCCOCCOCCOCCOCCOCCOCCOCCC(=O)NCCC(=O)N(C)CC(=O)N(C)CC(=O)N(C)CC(=O)N(C)CC(=O)N(C)CC(=O)N(C)CC(=O)N(C)CC(=O)N(C)CC(=O)N(C)CC(=O)N(C)CC(=O)N[C@@H](C)C(=O)N[C@@H](CCCCNC(=N)N)C(=O)N[C@@H](CC(=O)O)C(=O)N[C@H]3CSCCC(=O)N4CN5CN(C4)C(=O)CCSC[C@H](NC(=O)[C@H](CC(C)C)NC(=O)[C@@H]4CCCN4C(=O)[C@H](CC(N)=O)NC(=O)[C@H](C(C)C)NC(=O)[C@H](CC(C)C)NC(=O)[C@@H]4C[C@@H](O)CN4C3=O)C(=O)N[C@@H](CC(C)C)C(=O)N[C@@H](Cc3c[nH]cn3)C(=O)N3CCC[C@H]3C(=O)N[C@H](CC(=O)O)C(=O)N[C@@H](Cc3c[nH]c4ccccc34)C(=O)N[C@@H](CCCCNC(=N)N)C(=O)N[C@H](C(N)=O)CSCCC5=O)C(N)=O)NC1=O)C(=O)CCSC[C@H](NC(=O)[C@H](C)NC(C)=O)C(=O)N[C@@H]([C@@H](C)CC)C(=O)N[C@@H](CCC(=O)O)C(=O)N[C@@H](CCC(=O)O)C(=O)NCC(=O)N[C@@H](CCC(N)=O)C(=O)N[C@@H](Cc1ccc(O)cc1)C(=O)N2 [BCY9758]
CD137 [1]; [3]
  EC50: 1.2 nM
  Fold Induction over Background: 7 fold

## CCCC[C@@H]1NC(=O)[C@H](Cc2ccc(O)cc2)NC(=O)[C@@H]2CCCN2C(=O)[C@H](CC(=O)O)NC(=O)[C@H](C)NC(=O)[C@H](Cc2ccccc2)NC(=O)[C@@H]2CSCCC(=O)N3CN(CN(C3)C(=O)CCSC[C@@H](C(=O)N[C@@H](CNC(=O)CCc3cn(CC(=O)N[C@H]4CSCCC(=O)N5CN6CN(C5)C(=O)CCSC[C@H](NC(=O)[C@@H](CC(=O)O)NC(=O)[C@H](Cc5cccc7ccccc57)NC(=O)[C@@H]5CCCN5C4=O)C(=O)N[C@@H](CCSC)C(=O)N[C@@H](CCCCNC(=N)N)C(=O)N[C@@H](CC(=O)O)C(=O)N[C@@H](Cc4c[nH]c5ccccc45)C(=O)N[C@@H](CO)C(=O)N[C@@H]([C@@H](C)O)C(=O)N4CCC[C@H]4C(=O)N4C[C@H](O)C[C@H]4C(=O)N[C@@H](Cc4c[nH]c5ccccc45)C(=O)N[C@H](C(N)=O)CSCCC6=O)nn3)C(N)=O)NC1=O)C(=O)CCSC[C@H](NC(C)=O)C(=O)N[C@@H](CC(C)(C)C)C(=O)N1CCC[C@H]1C(=O)N[C@@H](CCC(=O)O)C(=O)N[C@H](C)C(=O)N1CCC[C@H]1C(=O)N[C@@H](Cc1ccc(O)cc1)C(=O)N2 [BCY11375]
CD137 [2]
  EC50: 0.23 nM
  Fold Induction over Background: 72 fold

## I: [Sar][Sar][Sar][Sar][Sar][Sar][Sar][Sar][Sar][Sar]CP[1Nal][dD]CM[hArg]DWSTP[Hyp]WC-NH2 / II: Ac-C[tBuAla]PE[dK]PYCFADPY[Nle]CA-NH2 (linker I:11-I:15-I:25, II:1-II:8-II:15 via TATA; linker I:N-II:5 via X1) [BCY10569]
CD137 [2]
  EC50: 1.2 nM
  Fold Induction over Background: 52 fold

## I: [Sar][Sar][Sar][Sar][Sar][Sar][Sar][Sar][Sar][Sar]CP[1Nal][dD]CM[hArg]DWSTP[Hyp]WC-NH2 / II: Ac-C[tBuAla]PK[dA]PYCFADPY[Nle]CA-NH2 (linker I:11-I:15-I:25, II:1-II:8-II:15 via TATA; linker I:N-II:4 via X1) [BCY10567]
CD137 [2]
  Fold Induction over Background: 45 fold
